Measurements from patent publication US9975888B2, “Aryl linked imidazole and triazole derivatives and methods of use thereof for improving the pharmacokinetics of a drug” (MERCK SHARP & DOHME CORP., priority 2013, dated 2018).
Like-named read-outs stand apart in the source and are kept apart here.

Legend:
Assay type in all cases: biochemical
CYP3A4 [1] = biological target: T1, CYP3A4 (Homo sapiens, UniProt P08684); assay: IC50 vs CYP3A by inhibition of lopinavir metabolism in human liver microsomes; parameters: 0.01 mg/mL protein human liver microsomes (BD Gentest); tissue BD Gentest; host or cells: human liver microsomes; conditions: 1.5 μM lopinavir, 0.01 mg/mL human liver microsomes, 8 min at 37° C.; read-out: CYP IC50 (nM) 3A4 (LPV)
Procedure, shortened: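 Human liver microsomes (0.01 mg/mL) with 1.5 μM lopinavir, 1 mM NADPH, 3.3 mM MgCl2 in 100 mM potassium phosphate pH 7.4, 8 min at 37 °C, six compound concentrations. Summed M2/M3/M4 hydroxy metabolites quantified by LC/MS/MS against tolbutamide; % inhibition normalised between no-inhibitor and 5 μM ketoconazole controls, IC50 by non-linear regression.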
Target sequence in this assay (P08684 2-503): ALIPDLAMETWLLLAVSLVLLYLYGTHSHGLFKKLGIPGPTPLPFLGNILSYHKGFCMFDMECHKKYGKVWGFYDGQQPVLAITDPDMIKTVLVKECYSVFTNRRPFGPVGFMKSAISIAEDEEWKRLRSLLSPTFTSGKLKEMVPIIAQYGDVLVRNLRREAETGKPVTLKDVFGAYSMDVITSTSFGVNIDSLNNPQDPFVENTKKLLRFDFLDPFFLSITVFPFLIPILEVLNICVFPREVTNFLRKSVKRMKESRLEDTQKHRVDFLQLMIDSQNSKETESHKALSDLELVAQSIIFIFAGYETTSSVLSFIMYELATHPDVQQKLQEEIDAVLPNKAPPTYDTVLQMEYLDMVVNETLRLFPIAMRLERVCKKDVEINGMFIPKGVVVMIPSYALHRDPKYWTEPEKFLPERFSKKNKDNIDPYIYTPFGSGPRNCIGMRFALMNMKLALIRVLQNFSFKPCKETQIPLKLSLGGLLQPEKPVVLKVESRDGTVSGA

CYP2D6 = biological target: T2, CYP2D6 (Homo sapiens, UniProt P10635); assay: Cocktail assay for CYPs, dextromethorphan O-demethylation (CYP2D6), human liver microsomes; conditions: 5 μM dextromethorphan, 0.1 mg/mL human liver microsomes, 10 min at 37° C.; read-out: CYP IC50 (nM) 2D6
T2 construct: 0.1 mg/mL protein human liver microsomes (BD Gentest); tissue BD Gentest; host or cells: human liver microsomes
Procedure, shortened: (§1)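 Pooled human liver microsomes (0.1 mg/mL) with a probe cocktail of 10 μM phenacetin, 5 μM dextromethorphan and 2 μM midazolam plus NADPH, pH 7.4, 10 min at 37° C. Each metabolite was quantified by LC/MS/MS against a tolbutamide internal standard. IC50 came from % inhibition at 6 concentrations (e.g. 0.0032–10 μM) by non-linear regression.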

CYP2C9 = biological target: T3, CYP2C9 (Homo sapiens, UniProt P11712); assay: Cocktail assay for CYPs, diclofenac 4′-hydroxylation (CYP2C9), human liver microsomes; conditions: 0.1 mg/mL human liver microsomes, 10 min at 37° C.
T3 construct: 0.1 mg/mL protein human liver microsomes (BD Gentest); tissue BD Gentest; host or cells: human liver microsomes
Procedure, shortened: (§2)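 Pooled human liver microsomes (0.1 mg/mL) with probe cocktail incl. 5 μM diclofenac (CYP2C9) and 30 μM mephenytoin (CYP2C19), 1 mM NADPH, pH 7.4 phosphate buffer, 10 min at 37° C. Metabolites quantified by LC/MS/MS against internal standard; % inhibition versus no-inhibitor control, IC50 by non-linear regression.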

CYP3A4 [2] = biological target: T1, CYP3A4; assay: Cocktail assay for CYPs, midazolam 1′-hydroxylation (CYP3A4), human liver microsomes; parameters: 0.1 mg/mL protein human liver microsomes (BD Gentest); tissue BD Gentest; host or cells: human liver microsomes; conditions: 2 μM midazolam, 0.1 mg/mL human liver microsomes, 10 min at 37° C.; read-out: CYP IC50 (nM) 3A4 (MDZ)
Procedure, shortened: as §1
Target sequence in this assay (P08684 whole entry): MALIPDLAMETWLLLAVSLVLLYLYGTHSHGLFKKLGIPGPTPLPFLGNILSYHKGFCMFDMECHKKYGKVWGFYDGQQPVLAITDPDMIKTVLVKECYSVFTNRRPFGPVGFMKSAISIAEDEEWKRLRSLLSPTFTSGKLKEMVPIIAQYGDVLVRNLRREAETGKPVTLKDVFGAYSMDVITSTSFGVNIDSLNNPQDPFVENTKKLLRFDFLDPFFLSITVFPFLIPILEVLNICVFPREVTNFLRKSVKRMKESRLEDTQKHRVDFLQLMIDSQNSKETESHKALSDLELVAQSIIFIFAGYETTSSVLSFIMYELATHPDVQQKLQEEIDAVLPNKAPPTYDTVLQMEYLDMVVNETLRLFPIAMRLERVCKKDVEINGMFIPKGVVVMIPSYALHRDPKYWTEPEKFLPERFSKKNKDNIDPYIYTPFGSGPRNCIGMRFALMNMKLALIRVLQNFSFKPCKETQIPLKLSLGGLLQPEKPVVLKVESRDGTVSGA

CYP2C19 = biological target: T4, CYP2C19 (Homo sapiens, UniProt P33261); assay: Cocktail assay for CYPs, mephenytoin 4′-hydroxylation (CYP2C19), human liver microsomes; conditions: 0.1 mg/mL human liver microsomes, 10 min at 37° C.
T4 construct: 0.1 mg/mL protein human liver microsomes (BD Gentest); tissue BD Gentest; host or cells: human liver microsomes
Procedure, shortened: as §2

CYP1A2 = biological target: T5, CYP1A2 (Homo sapiens, UniProt P05177); assay: Cocktail assay for CYPs, phenacetin O-deethylation (CYP1A2), human liver microsomes; conditions: 10 μM phenacetin, 0.1 mg/mL human liver microsomes, 10 min at 37° C.; read-out: CYP IC50 (nM) 1A2
T5 construct: 0.1 mg/mL protein human liver microsomes (BD Gentest); tissue BD Gentest; host or cells: human liver microsomes
T5 sequence (P05177 1-516): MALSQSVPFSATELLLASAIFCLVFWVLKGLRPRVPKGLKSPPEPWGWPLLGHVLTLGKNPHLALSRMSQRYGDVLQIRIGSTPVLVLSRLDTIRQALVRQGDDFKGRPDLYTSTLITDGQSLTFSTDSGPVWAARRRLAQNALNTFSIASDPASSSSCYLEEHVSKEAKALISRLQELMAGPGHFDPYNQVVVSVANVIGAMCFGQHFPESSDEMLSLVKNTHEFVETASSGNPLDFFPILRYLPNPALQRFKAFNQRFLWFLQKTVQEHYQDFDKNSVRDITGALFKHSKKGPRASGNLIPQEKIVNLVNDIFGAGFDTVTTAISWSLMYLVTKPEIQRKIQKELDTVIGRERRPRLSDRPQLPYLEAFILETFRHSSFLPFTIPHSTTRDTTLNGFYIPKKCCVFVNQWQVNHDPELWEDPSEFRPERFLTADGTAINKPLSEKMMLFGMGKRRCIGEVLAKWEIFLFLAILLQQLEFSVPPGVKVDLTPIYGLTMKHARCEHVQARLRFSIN
Procedure, shortened: as §1

[3] = 5 μM diclofenac, read-out: CYP IC50 (nM) 2C9
[4] = 30 μM mephenytoin, read-out: CYP IC50 (nM) 2C19
[5] = CYP IC50 (nM) 2C9, 5 μM diclofenac
[6] = CYP IC50 (nM) 2C19, 30 μM mephenytoin

T4 sequence (P33261 whole entry): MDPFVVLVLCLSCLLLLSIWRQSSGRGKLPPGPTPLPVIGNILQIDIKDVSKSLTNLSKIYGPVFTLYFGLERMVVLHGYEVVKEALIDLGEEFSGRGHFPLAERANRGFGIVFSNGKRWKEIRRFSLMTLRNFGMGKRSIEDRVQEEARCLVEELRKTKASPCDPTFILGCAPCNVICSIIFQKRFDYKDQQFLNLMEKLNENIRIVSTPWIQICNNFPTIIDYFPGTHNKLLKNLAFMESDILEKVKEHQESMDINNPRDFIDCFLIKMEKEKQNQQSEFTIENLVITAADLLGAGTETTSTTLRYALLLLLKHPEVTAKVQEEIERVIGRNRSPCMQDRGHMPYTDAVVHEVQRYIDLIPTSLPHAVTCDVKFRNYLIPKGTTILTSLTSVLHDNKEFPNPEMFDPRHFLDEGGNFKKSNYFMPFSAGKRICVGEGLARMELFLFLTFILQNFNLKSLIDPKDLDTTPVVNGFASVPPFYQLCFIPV
T3 sequence (P11712 whole entry): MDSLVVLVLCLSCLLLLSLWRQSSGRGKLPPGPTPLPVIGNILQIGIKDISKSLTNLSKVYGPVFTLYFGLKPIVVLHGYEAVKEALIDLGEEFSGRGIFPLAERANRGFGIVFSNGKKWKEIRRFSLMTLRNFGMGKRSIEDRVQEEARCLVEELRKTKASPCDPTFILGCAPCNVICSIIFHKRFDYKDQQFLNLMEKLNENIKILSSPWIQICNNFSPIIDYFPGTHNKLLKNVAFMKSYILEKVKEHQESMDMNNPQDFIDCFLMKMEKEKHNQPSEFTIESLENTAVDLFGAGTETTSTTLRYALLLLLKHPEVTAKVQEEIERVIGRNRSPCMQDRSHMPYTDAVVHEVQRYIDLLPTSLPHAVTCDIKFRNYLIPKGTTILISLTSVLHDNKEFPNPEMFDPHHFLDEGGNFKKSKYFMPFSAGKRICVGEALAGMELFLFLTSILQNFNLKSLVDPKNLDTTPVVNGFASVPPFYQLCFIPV
T2 sequence (P10635 whole entry): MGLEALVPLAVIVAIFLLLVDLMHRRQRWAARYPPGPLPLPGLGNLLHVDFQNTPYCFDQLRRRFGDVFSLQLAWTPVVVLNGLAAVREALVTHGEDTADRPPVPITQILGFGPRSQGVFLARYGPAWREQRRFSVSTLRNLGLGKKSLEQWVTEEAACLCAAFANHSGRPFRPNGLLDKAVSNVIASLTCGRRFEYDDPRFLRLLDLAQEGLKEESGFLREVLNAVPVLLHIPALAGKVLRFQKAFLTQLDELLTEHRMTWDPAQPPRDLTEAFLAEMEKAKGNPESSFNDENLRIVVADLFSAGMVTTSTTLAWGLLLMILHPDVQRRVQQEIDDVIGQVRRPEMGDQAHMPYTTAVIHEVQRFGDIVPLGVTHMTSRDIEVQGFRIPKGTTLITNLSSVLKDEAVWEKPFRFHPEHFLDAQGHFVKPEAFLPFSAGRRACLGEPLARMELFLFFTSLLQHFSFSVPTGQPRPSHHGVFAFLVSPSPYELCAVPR

SMILES: O=C(NCc1ccc(S(=O)(=O)N2CCCC2c2cccc(-c3cncn3CCc3ccc(F)cc3)c2)s1)c1ccccc1 (single isomer, unassigned) [Compound 55a, (R or S)-N-((5-((2-(3-(1-(4-fluorophenethyl)-1H-imidazol-5-yl)phenyl)pyrrolidin-1-yl)sulfonyl)thiophen-2-yl)methyl) benzamide]
- IC50 (CYP3A4 [1]): 0.84 nM
- IC50 (CYP2D6): 139 nM
- IC50 (CYP2C9; [3]): 61.6 nM
- IC50 (CYP3A4 [2]): 6.63 nM
- IC50 (CYP2C19; [4]): 219 nM
- IC50 (CYP1A2): 1080 nM

SMILES: O=C(NCc1ccc(S(=O)(=O)N2CCCC2c2cccc(-c3cncn3CCc3ccc(F)cc3)c2)s1)c1ccccc1 (single isomer, unassigned) [Compound 55b, (R or S)-N-((5-((2-(3-(1-(4-fluorophenethyl)-1H-imidazol-5-yl)phenyl)pyrrolidin-1-yl)sulfonyl)thiophen-2-yl)methyl) benzamide]
- IC50 (CYP3A4 [1]): 0.92 nM
- IC50 (CYP2D6): 163 nM
- IC50 (CYP2C9; [3]): 63.8 nM
- IC50 (CYP3A4 [2]): 5.1 nM
- IC50 (CYP2C19; [4]): 56 nM
- IC50 (CYP1A2): 158 nM

SMILES: O=S(=O)(c1ccc(N2CCC(O)CC2)nc1)N1CCCC1c1cccc(-c2cncn2CCc2ccc(F)cc2)c1 (single isomer, unassigned) [Compound 57a, (R or S)-1-(5-((2-(3-(1-(4-fluorophenethyl)-1H-imidazol-5-yl)phenyl)pyrrolidin-1-yl)sulfonyl)pyridin-2-yl) piperidin-4-ol]
- IC50 (CYP3A4 [1]): 3.7 nM
- IC50 (CYP2D6): 2200 nM
- IC50 (CYP2C9; [3]): 365 nM
- IC50 (CYP3A4 [2]): 10.4 nM
- IC50 (CYP2C19; [4]): 331 nM
- IC50 (CYP1A2): 367 nM

SMILES: O=S(=O)(c1ccc(N2CCC(O)CC2)nc1)N1CCCC1c1cccc(-c2cncn2CCc2ccc(F)cc2)c1 (single isomer, unassigned) [Compound 57b, (R or S)-1-(5-((2-(3-(1-(4-fluorophenethyl)-1H-imidazol-5-yl)phenyl)pyrrolidin-1-yl)sulfonyl)pyridin-2-yl) piperidin-4-ol]
- IC50 (CYP3A4 [1]): 1.4 nM
- IC50 (CYP2D6): 2230 nM
- IC50 (CYP2C9; [3]): 209 nM
- IC50 (CYP3A4 [2]): 4.52 nM
- IC50 (CYP2C19; [4]): 393 nM
- IC50 (CYP1A2): 190 nM

SMILES: CC(=O)Nc1ncc(S(=O)(=O)N2CCc3cc(-c4cncn4CCc4ccc(F)cc4)ccc3C2)s1 [Compound 1, N-(5-((6-(1-(4-fluorophenethyl)-1H-imidazol-5-yl)-3,4-dihydroisoquinolin-2(1H)-yl)sulfonyl)thiazol-2-yl)acetamide]
- IC50 (CYP3A4 [1]): 2.3 nM
- IC50 (CYP2D6): 765 nM
- IC50 (CYP2C9; [3]): 10 nM
- IC50 (CYP3A4 [2]): 11 nM
- IC50 (CYP2C19; [4]): 44 nM
- IC50 (CYP1A2): 1450 nM

SMILES: C[C@H](c1ccc(F)cc1)n1cncc1-c1ccc2c(c1)CN(S(=O)(=O)c1cnc(N)s1)CC2 [Compound 2, (R)-5-((7-(1-(1-(4-fluorophenyl)ethyl)-1H-imidazol-5-yl)-3,4-dihydroisoquinolin-2(1H)-yl)sulfonyl)thiazol-2-amine]
- IC50 (CYP3A4 [1]): 17 nM
- IC50 (CYP2D6): 288 nM
- IC50 (CYP2C9; [3]): 505 nM
- IC50 (CYP3A4 [2]): 39 nM
- IC50 (CYP2C19; [4]): 121 nM
- IC50 (CYP1A2): 2610 nM

SMILES: CC(NS(=O)(=O)c1cnc(N2CCN(C)CC2)s1)c1ccc(-c2cncn2CCc2ccc(F)cc2)cc1 (stereo not drawn) [Compound 3, N-(1-(4-(1-(4-fluorophenethyl)-1H-imidazol-5-yl)phenyl)ethyl)-2-(4-methylpiperazin-1-yl)thiazole-5-sulfonamide]
- IC50 (CYP3A4 [1]): 14 nM
- IC50 (CYP2D6): 2530 nM
- IC50 (CYP2C9; [3]): 4300 nM
- IC50 (CYP3A4 [2]): 22 nM
- IC50 (CYP2C19; [4]): > 10000 nM
- IC50 (CYP1A2): > 10000 nM

SMILES: CC(c1ccccc1-c1cncn1CCc1ccc(F)cc1)N(C)S(=O)(=O)c1cnc(N2CCN(C)CC2)s1 (stereo not drawn) [Compound 4, N-(1-(2-(1-(4-fluorophenethyl)-1H-imidazol-5-yl)phenyl)ethyl)-N-methyl-2-(4-methylpiperazin-1-yl)thiazole-5-sulfonamide]
- IC50 (CYP3A4 [1]): 9 nM
- IC50 (CYP2D6): 5110 nM
- IC50 (CYP2C9; [3]): 2200 nM
- IC50 (CYP3A4 [2]): 12 nM
- IC50 (CYP2C19; [4]): 6700 nM
- IC50 (CYP1A2): > 10000 nM

SMILES: CN1CCN(c2ncc(S(=O)(=O)NC(c3ccccc3)c3ccccc3-c3cncn3CCc3ccc(F)cc3)s2)CC1 (stereo not drawn) [Compound 5, N-((2-(1-(4-fluorophenethyl)-1H-imidazol-5-yl)phenyl) (phenyl)methyl)-2-(4-methylpiperazin-1-yl)thiazole-5-sulfonamide]
- IC50 (CYP3A4 [1]): 80 nM
- IC50 (CYP2D6): > 10000 nM
- IC50 (CYP2C9; [3]): > 10000 nM
- IC50 (CYP3A4 [2]): 65 nM
- IC50 (CYP2C19; [4]): > 10000 nM
- IC50 (CYP1A2): > 10000 nM

SMILES: C[C@@H](NS(=O)(=O)c1cnc(N2CCN3C[C@H](O)C[C@H]3C2)s1)c1ccccc1-c1cncn1CCc1ccc(F)cc1 [Compound 6a, N-((R)-1-(2-(1-(4-fluorophenethyl)-1H-imidazol-5-yl)phenyl)ethyl)-2-((7R,8aS)-7-hydroxy-hexahydro-pyrrolo[1,2-a]pyrazin-2(1H)-yl)thiazole-5-sulfonamide]
- IC50 (CYP3A4 [1]): 8.6 nM
- IC50 (CYP2D6): 2540 nM
- IC50 (CYP2C9; [5]): 4550 nM
- IC50 (CYP3A4 [2]): 7.5 nM
- IC50 (CYP2C19; [6]): 8700 nM
- IC50 (CYP1A2): > 10000 nM

SMILES: C[C@H](NS(=O)(=O)c1cnc(N2CCN3C[C@H](O)C[C@H]3C2)s1)c1ccccc1-c1cncn1CCc1ccc(F)cc1 [Compound 6b, N-((S)-1-(2-(1-(4-fluorophenethyl)-1H-imidazol-5-yl)phenyl)ethyl)-2-((7R,8aS)-7-hydroxy-hexahydro-pyrrolo[1,2-a]pyrazin-2(1H)-yl)thiazole-5-sulfonamide]
- IC50 (CYP3A4 [1]): 40.3 nM
- IC50 (CYP2D6): 3500 nM
- IC50 (CYP2C9; [5]): 5450 nM
- IC50 (CYP3A4 [2]): 30 nM
- IC50 (CYP2C19; [6]): > 10000 nM
- IC50 (CYP1A2): > 10000 nM

SMILES: CC(=O)Nc1ncc(S(=O)(=O)NC(C)(C)c2ccccc2-c2cncn2CCc2ccc(F)cc2)s1 [Compound 7, N-(5-(N-(2-(2-(1-(4-fluorophenethyl)-1H-imidazol-5-yl)phenyl)propan-2-yl)sulfamoyl)thia-zol-2-yl)acetamide]
- IC50 (CYP3A4 [1]): 10.6 nM
- IC50 (CYP2D6): 2880 nM
- IC50 (CYP2C9; [3]): 5990 nM
- IC50 (CYP3A4 [2]): 22.9 nM
- IC50 (CYP2C19; [4]): 3180 nM
- IC50 (CYP1A2): 6070 nM

SMILES: CC(=O)Nc1ncc(S(=O)(=O)N2CCCC2c2ccc(-c3cncn3CCc3ccc(F)cc3)cc2)s1 (stereo not drawn) [Compound 8, N-(5-((2-(4-(1-(4-fluorophenethyl)-1H-imidazol-5-yl)phenyl)pyrrolidin-1-yl)sulfonyl)thiazol-2-yl)acetamide]
- IC50 (CYP3A4 [1]): 1.9 nM
- IC50 (CYP2D6): 1200 nM
- IC50 (CYP2C9; [3]): 565 nM
- IC50 (CYP3A4 [2]): 4.4 nM
- IC50 (CYP2C19; [4]): 281 nM
- IC50 (CYP1A2): 8560 nM

SMILES: CN1CCN(c2ncc(S(=O)(=O)N3CCCC3c3ccc(-c4cncn4CCc4ccc(F)cc4)cc3)s2)CC1 (stereo not drawn) [Compound 9, 5-((2-(4-(1-(4-fluorophenethyl)-1H-imidazol-5-yl)phenyl)pyrrolidin-1-yl)sulfonyl)-2-(4-methylpiperazin-1-yl)thiazole]
- IC50 (CYP3A4 [1]): 2.4 nM
- IC50 (CYP2D6): 2100 nM
- IC50 (CYP2C9; [3]): 684 nM
- IC50 (CYP3A4 [2]): 9 nM
- IC50 (CYP2C19; [4]): 148 nM
- IC50 (CYP1A2): > 10000 nM

SMILES: CC(=O)Nc1ncc(S(=O)(=O)NC2(c3ccc(-c4cncn4[C@H](C)c4ccc(F)cc4)cc3)CC2)s1 [Compound 10, (R)—N-(5-(N-(1-(4-(1-(1-(4-fluorophenyl)ethyl)-1H-imidazol-5-yl)phenyl)cyclopropyl)sulfamoyl)thiazol-2-yl)acetamide]
- IC50 (CYP3A4 [1]): > 100 nM
- IC50 (CYP2D6): 9200 nM
- IC50 (CYP2C9; [3]): > 10000 nM
- IC50 (CYP3A4 [2]): 192 nM
- IC50 (CYP2C19; [4]): > 10000 nM
- IC50 (CYP1A2): 8480 nM
